The source of these data is PMC5567253 (Scientific Reports, 2017).

Structures are written as SMILES.

Data set [1] deals with MDA-MB-231 cells. Kind of data set: Scratch-wound (wound healing) migration assay. The class given is cell-based. Particulars: Homo sapiens, 20 h. The method, then: Cell invasion and migration were measured using Transwell and wound healing assays, respectively. For Transwell assays, 2 × 10^4 cells were suspended in serum-free media and seeded in the top chamber of Matrigel-coated invasion inserts (Corning life science, Corning, NY). BHX was then added to the top chambers. DMEM containing 10% FBS was added to the lower chamber as a chemoattractant. After 24 h incubation, the non-invading cells on the upper surface of the membrane were wiped away, and the invading cells on the lower surface of the membrane were fixed using 95% ethanol and stained with 0.1% crystal violet. Images were captured at ×200 magnification using an inverted phase contrast microscope (BX61, Olympus, Japan). In parallel, cells were treated identically in 24-well plate. These cells were harvested, stained with 0.1% crystal violet, and counted. The number of cells that had invaded was normalized for effects on cell viability. For wound healing assays, cells were seeded at 2 × 10^5 cells/well in 24-well culture plates and allowed to reach confluence. […] Images of the scratches were recorded at ×40 magnification using a phase contrast microscope (EVOS, AMG, USA) at 0 and 20 h. The areas between leading edges were measured using Image J software, after which the rates of wound healing were calculated.

Data set [2] concerns E-cadherin mRNA in MDA-MB-231 cells. Kind of data set: PCR analysis of E-cadherin mRNA. Particulars: 24 h. The class given is cell-based, human. Here is the method:
(§1) Total RNA from MDA-MB-231 cells was isolated using TRIzol (Life Technologies, USA). RNA samples were quantified using a NanoDrop 3300 spectrophotometer (Thermo Scientific, NanoDrop Products, Wilmington, DE, USA). Synthesis of cDNA was performed using a RevertAid First Strand cDNA Synthesis kit per manufacturer’s protocols (Thermo Scientific, USA). The reaction mixtures were heated at 95 °C for 10 min, followed by 30 cycles at 94 °C for 30 s, 58 °C for 30 s, 72 °C for 20 s, and a final extension at 72 °C for 5 min. Subsequently, PCR products were electrophoresed in a 1.5% agarose gel and scanned using a gel/fluorescence image analysis system. GAPDH was selected as a loading control to standardize the amount of cDNA from each sample.

The subject of data set [3] is β-catenin mRNA in MDA-MB-231 cells. Kind of data set: PCR analysis of β-catenin mRNA. Type of data set: cell-based, human. Conditions: 24 h. Here is the method: as §1
Data set [4] concerns A549. Details: method as in PMID 24098916. Particulars: cited from earlier work.
For data set [5], the system named is vimentin mRNA in MDA-MB-231 cells. In words: PCR analysis of vimentin mRNA. Conditions: 24 h. The class given is cell-based, human. Here is the method:
as §1

In data set [6] the test system is MDA-MB-231 cells. Kind of data set: Morphology of MDA-MB-231 cells after BHX. Type of data set: cell-based, human. Conditions: 24 h incubation, more noticeable at high concentrations.
Data set [7] concerns MDA-MB-231 cells. In words: Detection of apoptosis (annexin V/PI flow cytometry). The class given is cell-based, human. Particulars: 24 h. The method, then:
Flow cytometry was performed using PI and FITC-labelled annexin V (BD Pharmingen, CA, USA) staining according to the manufacturer’s protocol. […] After incubation at room temperature in the dark for 15 min, 400 μl of binding buffer (1×) was added. The samples were analysed within 1 h by flow cytometry (FACSCanto II, BD, San Jose, CA).
In general terms: A flow cytometer gives signals particle by particle.

Data set [8] relates to MDA-MB-231 cells. Kind of data set: cells. Particulars: Homo sapiens, MDA-MB-231, 48 h, read-out: approximate IC50 of colony forming ability. The method, then: The culture media was then aspirated and fresh cell culture media was added to allow colony formation. The culture media was changed every third day. The colonies were fixed with ice-cold methanol for 5 min and stained with 1.0% crystal violet for 30 min. Colony numbers were counted and representative photos were taken.

In data set [9] the test system is MDA-MB-231 xenografted tumours. Kind of data set: Mouse xenograft model, anti-tumour effect in vivo. Details: species or system BALB/c nude mice. Here is the method:
Female BALB/c nude mice (18 ± 2 g) were purchased from Institute of Laboratory Animal Sciences, Peking Union Medical College (Beijing, China). […] The tumour length and width were measured using callipers and the tumour volume was calculated twice weekly. The body weight of mice was determined at least twice weekly during the study period.

For data set [10], the system named is MDA-MB-231 cells. Kind of data set: Cell cycle analysis by flow cytometry. Particulars: 24 h, vehicle 31.52 ± 2.67%. Type of data set: cell-based, human. The method, then: Cell cycle analysis was carried out as previously described. […] They were washed thrice with ice-cold phosphate-buffered saline (PBS) and fixed with 75% ethanol at −20 °C overnight. The cells were then washed, incubated with 5 μl of RNase (0.25 mg/ml) at 37 °C for 30 min, pelleted, resuspended in propidium iodide (PI, 50 μg/ml), and incubated in the dark at room temperature for 15 min. Cell cycle analysis was analysed using a flow cytometer (FACSCanto II, BD, San Jose, CA).

For data set [11], the system named is intracellular ROS in MDA-MB-231 cells. Kind of data set: Measurement of intracellular ROS (H2DCFDA). Type of data set: cell-based, human. Conditions: 24 h, maximum potency at 20 μM. Here is the method: The levels of intracellular ROS were monitored using dichlorofluorescein diacetate (H2DCFDA) as previously reported. […] The culture media were replaced with 1 ml of H2DCFDA/RPMI DMEM media and incubated at 37 °C for 30 min, with a final H2DCFDA concentration of 10 μM. The levels of ROS were then detected using flow cytometry (FACSCanto II, BD, San Jose, CA).

The subject of data set [12] is vimentin protein in MDA-MB-231 cells. In words: Western blotting of vimentin. The class given is cell-based, human. Particulars: western blot. Here is the method:
Total cell lysates were obtained by lysing the cells in SDS lysis buffer containing a protease inhibitor (PMSF), and protein concentrations were determined using a BCA protein assay kit. The proteins were separated by SDS-PAGE and transferred to PVDF membranes. The membranes were incubated with primary antibodies against Snail, Vimentin, β-catenin, and E-cadherin (1:1000 dilution) overnight at 4 °C, rinsed with TBST, and incubated with IRDye-conjugated anti-rabbit or anti-mouse IgG secondary antibodies (1:1000, LI-COR Biosciences). A β-actin-specific monoclonal antibody (1:1000 dilution) was used as a loading control. Bands were visualized with an Odyssey LI-COR infrared imaging system (LI-COR, Lincoln, NE).
For orientation: In western blotting, separated proteins are transferred to a membrane and probed.

By inhibition is commonly meant how much of the control response was suppressed. A low value points to little suppression. Broadly, the IC50 is the concentration that inhibits the measured activity by half. For the molecule `O=C(NCc1ccc(O)cc1)C1C(c2ccccc2)C(c2ccccc2)=NN1c1ccccc1` (stereo not drawn) [BHX], the inhibition at 5 µM in [1] (5 μM) amounted to 34.4 ± 1.06%. The inhibition at 10 µM in data set [1] (10 μM) is 71 ± 1.65%. Also, the inhibition at 20 µM in data set [1] (20 μM) turned out to be 90.32 ± 0.68%. Further, the “increase of E-cadherin mRNA levels compared to control” value in [2] (5 μM) amounted to 1.39 fold; in [2] (10 μM) it was 1.65 fold; in [2] (20 μM) it was 2.06 fold. In addition, the figures for the “decrease of β-catenin mRNA levels” value in data set [3] (5 μM), in data set [3] (10 μM) and in data set [3] (20 μM) were 4.61%, 25.73% and 33.19%, respectively. Moreover, in data set [4], the cytotoxic effects result is reported as “exhibits cytotoxic effects”. Also, the “reduction of vimentin mRNA levels” value turned out to be 4.89% in data set [5] (5 μM), 26.27% in [5] (10 μM) and 40.08% in data set [5] (20 μM). Moreover, the morphological changes entry in data set [6] was “cell shrinkage and fragmentation”. In addition, in [7], the “early apoptotic cells vs vehicle” value was “increased the percentage of early apoptotic cells”. Further, the half-inhibitory concentration (IC50) in [8] was roughly 20 µM. This molecule also showed an average tumour volume in data set [9] (100 mg/kg for 21 days, vehicle 1179 ± 128 mm^3) of 754 ± 96 mm^3. In addition, the “tumour size compared to control group” value in data set [9] (100, 200 mg/kg, daily intraperitoneal, 21 days, p < 0.01) was “significant decrease in tumour size”. In addition, in data set [9] (21 days treatment, p > 0.05), the “body weight of treated mice” value is given as “no significant loss of body weight”. Further, the “bioluminescent intensity of tumours” value in data set [9] (21 days, dose not stated, control 8.90 ± 0.74 × 10^7) was 6.13 ± 0.52 × 10^7 p/sec/cm^2/sr. The “percentage of cells in the G0/G1 phase” value turned out to be 54.49 ± 1.93% in data set [10] (10 μM) and 61.50 ± 2.85% in data set [10] (20 μM). Further, in data set [11], the ROS generation entry is recorded as “significantly increased in a dose-dependent manner”. In data set [12], the vimentin protein expression entry was “down-regulating Snail and vimentin expression in a dose-dependent manner”.
